Columns and labels:
Format in all cases: in vivo
bradykinin = experiment: rat dermal vascular permeability test (mediator release model), bradykinin challenge; settings: 100 mg/kg
histamine [1] = experiment: rat dermal vascular permeability test (mediator release model), histamine challenge; settings: 100 mg/kg, histamine 20 ug/ml intradermal
Procedure: The furanone compounds listed in Tables 1A, 1B and 2 were used for anti-allergy treatment in the rat active anaphylaxis model and/or the rat dermal vascular permeability test (mediator release model). The results are given as the percent inhibition from the control.
In the rat dermal vascular permeability test, groups of ten male rats are intraperitoneally or perorally administered either the test compound, at a dosage of 100 mg/kg of rat weight as a 0.85% solution in saline, or the positive reference standard cyproheptadine (1 mg/kg) one hour prior to an intravenous injection of 1 ml of a 0.5% solution of Evan's blue dye into naive animals. Ten minutes later the animals are challenged by intradermally injecting 0.1 ml of a solution of either serotonin (1 ug/ml), histamine (20 ug/ml) or bradykinin (10 ug/ml) into separate sites on the back. Five minutes following challenge the animals are killed, the skin retracted, and the mean diameter of the blue wheal and flare reactions are determined. The percent inhibition of the wheal reaction is calculated as the difference in diameter between the saline control and drug treated groups divided by the control diameter times 100. Statistical analysis of the data is done using the poolt program.

serotonin = experiment: rat dermal vascular permeability test (mediator release model), serotonin challenge; settings: 100 mg/kg
edema = experiment: rat active anaphylaxis model (paw edema after bovine serum albumin challenge); settings: 100 mg/kg intraperitoneally; for Active Anaphylaxis % Inhibition: 1 h before challenge, paw volume 90 min post challenge
Procedure: In the rat active anaphylaxis model, groups consisting of 15-20 male rats are intraperitoneally sensitized on day zero with 500 ug of bovine serum albumin-absorbed alum admixed with 2×10^10 killed Bordatella pertussis vaccine organisms. […] The paw volume is measured using a mercury plethysmometer prior to drug administration and 90 minutes post antigenic challenge. The percent inhibition of edema is calculated as the difference in volume between the control and drug treated groups divided by the control volume times 100. The positive control drug, theophylline (90 mg/kg, po) is included in each assay. Statistical analysis of the data is done using the poolt program.

histamine [2] = experiment: rat dermal vascular permeability test (mediator release model), histamine challenge; settings: topical, 100 mg/kg
[3] = peroral, serotonin 1 ug/ml intradermal
[4] = intraperitoneal administration, bradykinin 10 ug/ml intradermal
[5] = intraperitoneal administration, serotonin 1 ug/ml intradermal

Row | SMILES | % Inhibition of Mediator Release, Bradykinin (bradykinin; topical) | % Inhibition of Mediator Release, Histamine (histamine [1]; peroral) | % Inhibition of Mediator Release, Serotonin (serotonin; [3]) | Active Anaphylaxis % Inhibition (edema) | further results
1 | CCOC(=O)C1=C(N[C@@H]2C[C@H]2c2ccccc2)OCC1=O (relative stereo) | 59% | 35% | 57% | – | –
2 | CCOC(=O)C1=C(N[C@@H]2C[C@H]2c2ccc(Cl)cc2)OCC1=O (relative stereo) | 76% | 60% | 51% | – | –
3 | Cc1ccc([C@@H]2C[C@H]2NC2=C(C(=O)O)C(=O)CO2)cc1 (relative stereo) | 100% | 100% | 100% | 45% | –
4 | O=C(O)C1=C(N[C@@H]2C[C@H]2c2ccc(Cl)cc2)OCC1=O (relative stereo) | 71% | 56% | 54% | 6% | –
5 | O=C(O)C1=C(N[C@@H]2C[C@H]2c2ccccc2)OCC1=O (relative stereo) | – | – | – | 22% | –
6 | CCOC(=O)C1=C(O)COC1=Nc1ccc(Br)cc1 [K C6 H4 Br--4 C2 H5] | – | – | – | 38% | % Inhibition of Mediator Release, Bradykinin (bradykinin; [4]): 69%; % Inhibition of Mediator Release, Histamine (histamine [1]; intraperitoneal administration): 65%; % Inhibition of Mediator Release, Serotonin (serotonin; [5]): 46%
7 | CCOC(=O)C1=C(O)COC1=Nc1cccc(C)c1 [K C6 H4 CH3 --3 C2 H5] | – | – | – | – | % Inhibition of Mediator Release, Bradykinin (bradykinin; [4]): 70%; % Inhibition of Mediator Release, Histamine (histamine [1]; intraperitoneal administration): 71%; % Inhibition of Mediator Release, Serotonin (serotonin; [5]): 75%
8 | CCOC(=O)C1=C(O)COC1=Nc1ccc(C(C)=O)cc1 [K C6 H4 COCH3 --4 C2 H5] | – | – | – | 56% | % Inhibition of Mediator Release, Bradykinin (bradykinin; [4]): 86%; % Inhibition of Mediator Release, Histamine (histamine [1]; intraperitoneal administration): 88%; % Inhibition of Mediator Release, Serotonin (serotonin; [5]): 79%
9 | CCOC(=O)C1=C(O)COC1=Nc1cccc([N+](=O)[O-])c1 [K C6 H4 NO2 --3 C2 H5] | – | – | – | 37% | % Inhibition of Mediator Release, Bradykinin (bradykinin; [4]): 67%; % Inhibition of Mediator Release, Histamine (histamine [1]; intraperitoneal administration): 49%; % Inhibition of Mediator Release, Serotonin (serotonin; [5]): 45%
10 | CCOC(=O)C1=C(O)COC1=Nc1ccccc1OC [K C6 H4 OCH3 --2 C2 H5] | – | – | – | 58% | –
11 | CCOC(=O)C1=C(O)COC1=Nc1ccccc1 [K C6 H5 C2 H5, Potassium 2,5-dihydro-3-ethoxycarbonyl-2-(phenylimino)-4-furanyloxide] | – | – | – | 49% | % Inhibition of Mediator Release, Bradykinin (bradykinin; [4]): 51%; % Inhibition of Mediator Release, Histamine (histamine [1]; intraperitoneal administration): 31%; % Inhibition of Mediator Release, Serotonin (serotonin; [5]): 42%
12 | COc1ccc(NC(=O)C2=C(Nc3ccc(OC)cc3)OCC2=O)cc1 [NH6 H4 OCH3 4 H H C6 H4 OCH3 4] | 39% | – | – | – | % Inhibition of Mediator Release, Histamine (histamine [2]): 8%; % Inhibition of Mediator Release, Serotonin (serotonin; topical): 13%
13 | Cc1ccccc1NC(=O)C1=C(Nc2ccccc2C)OCC1=O [NHC6 H4 CH3 2 H H C6 H4 CH3 2] | 7% | 0% | 9% | – | –
14 | O=C1COC(Nc2ccc(Cl)cc2)=C1C(=O)Nc1ccc(Cl)cc1 [NHC6 H4 Cl4 H H C6 H4 Cl4] | 44% | 15% | 14% | – | –
15 | COc1ccccc1NC(=O)C1=C(Nc2ccccc2OC)OCC1=O [NHC6 H4 OCH3 2 H H C6 H4 OCH3 2] | 39% | 1% | 18% | – | –
16 | O=C1COC(Nc2ccccc2)=C1C(=O)Nc1ccccc1 [NHC6 H5 H H C6 H5, 4,5-Dihydro-4-oxo-N-phenyl-2-(phenylamino)-3-furancarboxamide] | – | – | – | 46% | –
17 | CCOC(=O)C1=C(Nc2ccccc2)OC(C)(C)C1=O [OC2 H5 CH3 CH3 C6 H5, ethyl 4,5-dihydro-5,5-dimethyl-4-oxo-2-(phenylamino)-3-furancarboxylate] | – | – | – | 16% | –
18 | CCOC(=O)C1=C(Nc2cccc(C(F)(F)F)c2)OCC1=O [OC2 H5 H H C6 H4 CF3 --3] | 40% | 4.1% | 9.7% | – | –
19 | CCOC(=O)C1=C(Nc2ccc(C(=O)OCC)cc2)OCC1=O [OC2 H5 H H C6 H4 CO2 C2 H5 --4, ethyl 2-[[4-(ethoxycarbonyl)phenyl]-amino]-4,5-dihydro-4-oxo-3-furancarboxylate] | 21% | 21% | 18% | – | –
20 | CCOC(=O)C1=C(Nc2ccc(Cl)cc2)OCC1=O [OC2 H5 H H C6 H4 Cl--4] | 9.5% | 3.3% | 6.6% | – | –
21 | CCOC(=O)C1=C(NC)OCC1=O [OC2 H5 H H CH3] | – | – | – | – | % Inhibition of Mediator Release, Bradykinin (bradykinin; [4]): 25%; % Inhibition of Mediator Release, Histamine (histamine [1]; intraperitoneal administration): 50%; % Inhibition of Mediator Release, Serotonin (serotonin; [5]): 38%
22 | CC1(C)OC(Nc2ccccc2)=C(C(=O)O)C1=O [OH CH3 CH3 C6 H5] | – | – | – | 44% | –
23 | CC1OC(Nc2ccccc2)=C(C(=O)O)C1=O (stereo not drawn) [OH H CH3 C6 H5] | – | – | – | 60% | % Inhibition of Mediator Release, Bradykinin (bradykinin; [4]): 46%; % Inhibition of Mediator Release, Histamine (histamine [1]; intraperitoneal administration): 40%; % Inhibition of Mediator Release, Serotonin (serotonin; [5]): 37%
24 | O=C(O)C1=C(Nc2ccc(Br)cc2)OCC1=O [OH H H C6 H4 Br--4] | 68% | 45% | 39% | 27% | –
25 | O=C(O)C1=C(Nc2cccc(C(F)(F)F)c2)OCC1=O [OH H H C6 H4 CF3 --3] | 54% | 26% | 40% | 45% | –
26 | O=C(O)C1=C(Nc2ccc(C(=O)O)cc2)OCC1=O [OH H H C6 H4 CO2 H--4, 2-[(4-Carboxyphenyl)amino]-4,5-dihydro-4-oxo-3-furancarboxylic Acid] | 64% | 64% | 63% | 52% | –
27 | O=C(O)C1=C(Nc2cccc([N+](=O)[O-])c2)OCC1=O [OH H H C6 H4 NO2 --3] | 48% | 16% | 18% | – | Active Anaphylaxis % Inhibition (footnote 1: edema increased) (edema; edema increased): 39%
28 | COc1ccccc1NC1=C(C(=O)O)C(=O)CO1 [OH H H C6 H4 OCH3 --2] | 38% | 27% | 30% | 45% | –
29 | O=C([O-])C1=C(Nc2ccccc2)OCC1=O.[Na+] [O^- Na^+ H H C6 H5, 4,5-dihydro-4-oxo-2-phenylamino-3-furancarboxylic acid sodium salt] | – | – | – | 17% | –

From patent publication US4845122A, “Anti-allergy treatment using 2-(substituted amino)-4,5-dihydro-4-oxo-3-furancarboxylic acids and derivatives thereof” (priority 1986, dated 1989)
